One experiment relates to ECa-109 cell line. The experiment can be described thus: Antiproliferative activity against human Eca-109 cells measured after 72 hrs by MTT assay. The note with it: ECa-109, 72 h. The experiment is classed as functional, cell-based. For orientation: Formazan colour is commonly taken as a measure of viable cells.
A further experiment has as its system PC-3. The experiment can be described thus: Antiproliferative activity against human PC-3 cells measured after 72 hrs by MTT assay. The experiment is classed as functional, cell-based. The note with it: PC-3, 72 h.
A short description of experiment [1]: Induction of NO release in phosphate buffer containing excess L-cysteine measured up to 14 hrs by Griess assay. It counts as functional.
The test system of the next experiment is MGC-803. Put plainly: cells. Conditions: Homo sapiens, MGC-803, 72 h.
In the next experiment the test system is MCF7. Put plainly: cells. Conditions: Homo sapiens, MCF7, 72 h.

The values below come from ChEMBL document CHEMBL5365407, “Design, synthesis and biological evaluation of nitric oxide-releasing 5-cyano-6-phenyl-2, 4-disubstituted pyrimidine derivatives” (Bioorg Med Chem Lett, 2023).

Active and inactive are the calls of the source. The calls are words filed in the database; no cut-off is given here.

Description for MCF7: Antiproliferative activity against human MCF7 cells measured after 72 hrs by MTT assay
Description for MGC-803: Antiproliferative activity against human MGC-803 cells measured after 72 hrs by MTT assay

By IC50 is commonly meant the concentration that inhibits the measured activity by half. A low value points to higher potency. In the case of `N#Cc1c(-c2ccccc2)nc(SCC(=O)N2CCN(CCOc3no[n+]([O-])c3S(=O)(=O)c3ccccc3)CC2)nc1N1CCOCC1`, the IC50 with ECa-109 cell line is 6920 nM; in the experiment on PC-3, 6980 nM; in the experiment on MGC-803 it was 8130 nM; in the experiment with MCF7, 8950 nM. In addition, the outcome in experiment [1] was Active.
Consider `N#Cc1c(Nc2ccccc2)nc(SCC(=O)OCCCCCCOc2no[n+]([O-])c2S(=O)(=O)c2ccccc2)nc1-c1ccccc1`, for which the IC50 was over 50000 nM in the experiment on ECa-109 cell line, 13000 nM with PC-3, over 50000 nM with MGC-803 and over 50000 nM in the experiment with MCF7.
Consider `N#Cc1c(Nc2ccc(F)c(Cl)c2)nc(SCC(=O)N2CCN(CCOc3no[n+]([O-])c3S(=O)(=O)c3ccccc3)CC2)nc1-c1ccccc1`, for which the IC50 in the experiment with ECa-109 cell line was 2810 nM; in the experiment on PC-3, 1970 nM; with MGC-803, 1070 nM; in the experiment with MCF7, 3360 nM.
For the molecule `N#Cc1c(Nc2ccccc2)nc(SCC(=O)OCCc2ccc(Oc3no[n+]([O-])c3S(=O)(=O)c3ccccc3)cc2)nc1-c1ccccc1`, the 50% inhibitory concentration (IC50) was 23100 nM with ECa-109 cell line, 2100 nM with PC-3, 18400 nM in the experiment on MGC-803 and over 50000 nM in the experiment with MCF7.
For `Cc1cccc(Nc2nc(SCC(=O)N3CCN(CCOc4no[n+]([O-])c4S(=O)(=O)c4ccccc4)CC3)nc(-c3ccccc3)c2C#N)c1`, the half-maximal inhibitory concentration (IC50) in the experiment with ECa-109 cell line came out at 2380 nM; in the experiment on PC-3, 2100 nM; with MGC-803, 1250 nM; with MCF7 it was 2120 nM.
For the molecule `CCc1ccc(Nc2nc(SCC(=O)N3CCN(CCOc4no[n+]([O-])c4S(=O)(=O)c4ccccc4)CC3)nc(-c3ccccc3)c2C#N)cc1`, the IC50 in the experiment with ECa-109 cell line came to 5970 nM; with PC-3 it was 2720 nM; with MGC-803 it was 1450 nM; in the experiment with MCF7, 3390 nM.
`N#Cc1c(Nc2cccc(F)c2)nc(SCC(=O)N2CCN(CCOc3no[n+]([O-])c3S(=O)(=O)c3ccccc3)CC2)nc1-c1ccccc1`: the concentration for half-maximal inhibition (IC50) in the experiment with ECa-109 cell line is 4540 nM; in the experiment with PC-3, 1630 nM; in the experiment with MGC-803, 1080 nM; in the experiment with MCF7, 2720 nM.
In the case of `N#Cc1c(Nc2ccc(Br)cc2)nc(SCC(=O)N2CCN(CCOc3no[n+]([O-])c3S(=O)(=O)c3ccccc3)CC2)nc1-c1ccccc1`, the IC50 with ECa-109 cell line turned out to be 3320 nM; in the experiment with PC-3, 1940 nM; in the experiment on MGC-803, 1390 nM; in the experiment on MCF7, 2310 nM.
The matching figures for `N#Cc1c(Nc2cccc(Br)c2)nc(SCC(=O)N2CCN(CCOc3no[n+]([O-])c3S(=O)(=O)c3ccccc3)CC2)nc1-c1ccccc1`: 3450 nM, 1550 nM, 1330 nM and 3160 nM.
In the case of `N#Cc1c(Nc2ccccc2)nc(SCC(=O)N2CCN(CCOc3no[n+]([O-])c3S(=O)(=O)c3ccccc3)CC2)nc1-c1ccccc1`, the IC50 with ECa-109 cell line was 2270 nM; in the experiment on PC-3 it was 1920 nM; in the experiment on MGC-803 it was 2000 nM; with MCF7, 2960 nM.
As to `N#Cc1c(Nc2ccccc2)nc(SCC(=O)NCCCCCOc2no[n+]([O-])c2S(=O)(=O)c2ccccc2)nc1-c1ccccc1`, the IC50 with ECa-109 cell line came out at 4610 nM; in the experiment with PC-3 it was 2300 nM; with MGC-803 it was 2210 nM; with MCF7, 4020 nM.
`N#Cc1c(Nc2ccc(Cl)cc2)nc(SCC(=O)N2CCN(CCOc3no[n+]([O-])c3S(=O)(=O)c3ccccc3)CC2)nc1-c1ccccc1`: the half-maximal inhibitory concentration (IC50) with ECa-109 cell line came out at 3010 nM; in the experiment on PC-3, 2080 nM; in the experiment on MGC-803, 2050 nM; in the experiment on MCF7 it was 3040 nM. The outcome in experiment [1] was Active.
Regarding `CCOc1ccccc1Nc1nc(SCC(=O)N2CCN(CCOc3no[n+]([O-])c3S(=O)(=O)c3ccccc3)CC2)nc(-c2ccccc2)c1C#N`, the IC50 in the experiment with ECa-109 cell line is 3750 nM; in the experiment with PC-3, 2050 nM; in the experiment with MGC-803, 1460 nM; in the experiment with MCF7 it was 3610 nM.
Take `N#Cc1c(Nc2ccc(F)cc2)nc(SCC(=O)N2CCN(CCOc3no[n+]([O-])c3S(=O)(=O)c3ccccc3)CC2)nc1-c1ccccc1`: the concentration for half-maximal inhibition (IC50) came to 2480 nM in the experiment on ECa-109 cell line, 1390 nM with PC-3, 1560 nM with MGC-803 and 2230 nM in the experiment on MCF7.
On to `N#Cc1c(Nc2ccccc2)nc(SCC(=O)NCCCOc2no[n+]([O-])c2S(=O)(=O)c2ccccc2)nc1-c1ccccc1`, for which the IC50 in the experiment on ECa-109 cell line was found to be 5730 nM; with PC-3, 2280 nM; in the experiment with MGC-803 it was 2950 nM; with MCF7, 6030 nM.
Take `N#Cc1c(Nc2cccc(Cl)c2)nc(SCC(=O)N2CCN(CCOc3no[n+]([O-])c3S(=O)(=O)c3ccccc3)CC2)nc1-c1ccccc1`: the IC50 with ECa-109 cell line was found to be 2310 nM; with PC-3 it was 1430 nM; with MGC-803, 1190 nM; with MCF7, 2510 nM.
As to `CCOc1ccc(Nc2nc(SCC(=O)N3CCN(CCOc4no[n+]([O-])c4S(=O)(=O)c4ccccc4)CC3)nc(-c3ccccc3)c2C#N)cc1`, the half-inhibitory concentration (IC50) is 3570 nM with ECa-109 cell line, 2840 nM in the experiment on PC-3, 2950 nM with MGC-803 and 5430 nM in the experiment with MCF7.
